This is an account of results in US20160213739A1, “TREATMENTS FOR DISORDERS USING GUANYLATE CYCLASE C AGONISTS” (Ironwood Pharmaceuticals, Inc., priority 2011, published 2016).

Positions of bridges follow the written chain, without caps; N, C: chain ends. Non-standard residues stand in square brackets, D forms with d. Residues, ends and D or L forms follow the SMILES beside them. pS = N[C@@H](COP(=O)(O)O)C(=O)O

Series [1] can be described thus: In vitro metabolism in mouse jejunum loop fluid. In kind it is in vitro ADME. The note with it: 37° C.; for metabolism in the control reaction: control reaction (1 M Tris-HCl), 120 minute incubation. How it is done:
The purpose of this study was to determine the stability of phosphorylated peptides in mouse jejunal loop fluid. […] The isotopically labeled peptide 2 was synthesized with ^13C, ^15N-labeled alanine and leucine (i.e., with a sequence CCpS[^13C6, ^15N]LCCNP[^13C6, ^15N]ACTGC).
Each peptide was synthesized by American Peptide Company, Inc., and was stored desiccated at −20° C. A 1 mg/mL solution for each of the non-labeled peptides was prepared in 1 M tris (hydroxymethyl) aminomethane hydrochloride (Tris-HCl), pH 8 just prior to conducting the mouse intestinal loop fluid assay. A 500 ng/mL solution of ^13C, ^15N-labeled peptide 2 was prepared in 0.1% formic acid in water and was utilized to dilute the jejunum samples for post-assay LC-MS/MS analysis.
To collect the fluid, mice were fasted overnight with full access to water. They were then anesthetized with isofluorane for surgery and subjected to laparotomy in which the small intestine was exteriorized. Jejunum loops of 3 to 4 cm in length were made with sutures starting at 7 cm from the pyloric sphincter of the stomach. Once the loops were formed, they were injected with 200 μL of phosphate buffered saline (PBS) buffer (10 mM, pH 7.4). The abdominal wall and skin of the animals were then sutured, and the animals were allowed to recover for 30 minutes. Following recovery, the animals were sacrificed, the loops were then excised and the fluid inside was recovered and stored at −80° C. until use.
For each peptide, 254 of the 1 mg/mL peptide stock solution was added to 25 of 1 M Tris-HCl and 25 μL of 10× calf intestinal phosphatase (CIP) buffer containing 500 mM Tris-HCl, 1 M sodium chloride (NaCl), […] (MgCl2), pH 8. The reactions were initiated by adding 175 pit of the mouse jejunum loop fluid or 175 μL of the 1 M Tris-HCl pH8 buffer for the control reactions. The final concentration of each peptide was 100 μg/mL. The reactions were continuously mixed and maintained at 37° C. on a plate shaker. At 0, 2, 5, 10, 20, 30, 60, 90 and 120 minutes after adding the mouse intestinal loop fluid, a 25 μL aliquot was taken and added to 25 μL of 4° C. 12% trichloroacetic acid to stop the reaction. An additional 200 μL of 0.1% formic acid in water was added to these reactions for dilution purposes. These samples were then further diluted by taking 20 μL of each sample and adding it to 480 μL of 0.1% formic acid in water containing 500 ng/mL of the internal standard ^13C, ^15N-labeled peptide 2.
All samples were analyzed using an Applied Biosystems/MDS SCIEX API 4000 triple quadrupole mass spectrometer equipped with a high-performance liquid chromatography (HPLC) system. The mass spectrometer was operated in multiple reaction monitoring (MRM) mode, with resolution set to 1.2 Da.
The LC-MS/MS data were processed using Analyst version 1.4.2 software (Applied Biosystems/MDS SCIEX). The peak area ratio (ratio of analyte peak area to internal standard peak area) was used to calculate the percent remaining of each peptide.

In series [2] the target is T1, human prostate acid phosphatase (HuPrAP) (Homo sapiens, UniProt P15309).
T1 construct: purchased MP Biochemicals 153872
T1 sequence (P15309 33-386): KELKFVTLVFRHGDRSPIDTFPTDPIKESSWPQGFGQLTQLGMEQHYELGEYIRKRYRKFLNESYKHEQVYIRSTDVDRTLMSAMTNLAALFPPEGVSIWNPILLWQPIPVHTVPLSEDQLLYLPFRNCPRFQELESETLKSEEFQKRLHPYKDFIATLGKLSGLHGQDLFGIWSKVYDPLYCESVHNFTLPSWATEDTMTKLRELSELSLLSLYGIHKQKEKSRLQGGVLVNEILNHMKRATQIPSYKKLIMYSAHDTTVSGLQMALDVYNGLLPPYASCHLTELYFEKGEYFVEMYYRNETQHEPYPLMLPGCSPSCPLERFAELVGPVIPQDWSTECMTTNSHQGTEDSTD
As to the kind of experiment: Acid phosphatase reaction, human prostate acid phosphatase. Format: in vitro ADME. The note with it: Human prostatic acid phosphatase pH 5, 90 minutes at 37° C. As for the experimental part: (§1) For the alkaline phosphatase reactions, peptide stocks were prepared at 1 mg/mL in 0.1 M Tris-HCl pH 8, which were stored at −20° C. until assays were conducted. For the acid phosphatase reactions, peptide stocks were prepared at 1 mg/mL in 50 mM sodium phosphate pH 6, which was stored at −20° C. until assays were conducted.
(§2) Potato acid phosphatase (PoAP) was obtained from Sigma, St. Louis, Miss. Cat #P1146 and human prostate acid phosphatase (HuPrAP) was obtained from MP Biochemicals, Solon, Ohio. Cat #153872. The acid phosphatases were dissolved to provide a solution containing 0.5 units AP/4 using 50 mM sodium acetate pH 5, 0.2 mM MgCl2. The acid phosphatase reactions were assembled in 20 μL quantities containing: • 2 μL 10× acid phosphatase buffer (500 mM sodium acetate pH 5, 2 mM MgCl2) • 2 μL peptide stock (1 mg/mL) • 12 μL H2O • 4 μL acid phosphatase (0.5 or 2 units)
(§3) The reaction solutions were mixed gently and incubated for 90 minutes at 37° C. The reaction solutions were stored at −20° C. for later analysis. For analysis, 7.5 μL acid phosphatase reactions were diluted to 50 μL with 0.1% formic acid in water to a final concentration of 10 μM. The control reactions for enzyme activity were assembled and diluted to 10 mM p-nitrophenylphosphate in place of peptide. After incubation, the reactions were diluted with 0.1 mL of 100 mM borate buffer pH 9 and read at the absorbance of 405 nm to monitor p-nitrophenol appearance.

For series [3], the system named is Potato acid phosphatase (PoAP). Description: Acid phosphatase reaction, potato acid phosphatase. The note with it: Potato acid phosphatase pH 5, 90 minutes at 37° C. In kind it is in vitro ADME. How it is done:
as §1, §2, §3

Series [4] has as its target T2, Calf intestinal alkaline phosphatase (CIP) (Bos taurus, UniProt P19111).
T2 construct: purchased New England BioLabs M0290S
Description: Alkaline phosphatase reaction on peptide substrates. In kind it is in vitro ADME. Particulars: for Dephospho (%) / Remaining (%): Alkaline phosphatase pH 8, 90 minutes at 37° C. As for the experimental part:
as §1
Calf intestinal alkaline phosphatase (CIP) was obtained from New England BioLabs, Ipswich, Mass. Cat # M0290S. The CIP reaction solution was prepared by dilution with buffer (50 mM KCl, 10 mM Tris-HCl pH 8, 1 mM MgCl2, 50% glycerol) to 0.5 units/4. The alkaline phosphatase reaction solutions were assembled in 20 μL quantities containing:
2 μL 10×CIP buffer (1M NaCl, 500 mM Tris-HCl pH 8, 100 mM MgCl2)
2 μL peptide stock (1 mg/mL)
4 μL alkaline phosphatase (0, 0.5 or 2 units)
The reaction solutions were mixed gently and incubated for 90 minutes at 37° C. These reaction solutions were stored at −20° C. until analysis. For analysis, the reaction solutions were diluted from 7.5 μL of CIP treated peptide to 50 μL with 0.1% formic acid in water to a final concentration of 10 μM.
Control reactions were assembled for enzyme activity containing 10 mM p-nitrophenylphosphate in place of peptide. After incubation, the reactions were diluted with 0.1 mL of 100 mM borate buffer pH 9 and read at the absorbance of 405 nm to monitor p-nitrophenol appearance.

The conditions of series [5]: after oral administration at therapeutic dose levels; cited from earlier work.

T2 sequence (P19111 20-506): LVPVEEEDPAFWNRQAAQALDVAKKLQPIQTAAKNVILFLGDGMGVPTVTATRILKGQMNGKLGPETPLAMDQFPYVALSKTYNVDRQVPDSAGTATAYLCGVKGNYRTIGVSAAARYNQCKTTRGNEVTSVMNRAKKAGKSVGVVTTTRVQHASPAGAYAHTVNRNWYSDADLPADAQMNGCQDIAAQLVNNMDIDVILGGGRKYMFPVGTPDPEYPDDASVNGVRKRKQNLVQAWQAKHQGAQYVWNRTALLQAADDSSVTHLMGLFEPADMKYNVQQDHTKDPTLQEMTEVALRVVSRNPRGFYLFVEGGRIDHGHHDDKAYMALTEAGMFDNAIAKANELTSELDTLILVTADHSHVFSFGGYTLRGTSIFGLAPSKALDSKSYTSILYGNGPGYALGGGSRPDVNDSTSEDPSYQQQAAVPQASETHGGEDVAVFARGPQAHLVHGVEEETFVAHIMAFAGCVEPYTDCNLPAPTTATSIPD

Regarding `CC(C)C[C@@H]1NC(=O)[C@H](CO)NC(=O)[C@@H]2CSSC[C@@H]3NC(=O)[C@H](C)NC(=O)[C@@H]4CCCN4C(=O)[C@H](CC(N)=O)NC(=O)[C@H](CSSC[C@H](N)C(=O)N2)NC(=O)[C@H](CSSC[C@@H](C(=O)O)NC(=O)CNC(=O)[C@H]([C@@H](C)O)NC3=O)NC1=O` [Dephospho-Peptide 2, CCSLCCNPACTGC] (H-CCSLCCNPACTGC-OH; disulfide 1-6, 2-10, 5-13 (inferred); N-terminus and C-terminus assumed), in series [1], the “metabolism in the control reaction” value is given as “not metabolized” and the “degradation in mouse intestinal fluid compared with peptide 2” value is “degraded faster”.

As to `CC(C)C[C@@H]1NC(=O)[C@H](COP(=O)(O)O)NC(=O)[C@@H]2CSSC[C@@H]3NC(=O)[C@H](C)NC(=O)[C@@H]4CCCN4C(=O)[C@H](CC(N)=O)NC(=O)[C@H](CSSC[C@H](N)C(=O)N2)NC(=O)[C@H](CSSC[C@@H](C(=O)N[C@@H](Cc2ccc(O)cc2)C(=O)O)NC(=O)CNC(=O)[C@H]([C@@H](C)O)NC3=O)NC1=O` [Peptide 1, CCpSLCCNPACTGCY] (H-CC[pS]LCCNPACTGCY-OH; disulfide 1-6, 2-10, 5-13 (inferred); N-terminus and C-terminus assumed), the “Dephospho (%)” value was determined as 6.2% in series [2], 22.1% in series [3] and 100% in series [4]. Besides, the “Remaining (%)” value in series [4] worked out at 0%.

`CC(C)C[C@@H]1NC(=O)[C@H](COP(=O)(O)O)NC(=O)[C@@H]2CSSC[C@@H]3NC(=O)[C@H](C)NC(=O)[C@@H]4CCCN4C(=O)[C@H](CC(N)=O)NC(=O)[C@H](CSSC[C@H](N)C(=O)N2)NC(=O)[C@H](CSSC[C@@H](C(=O)O)NC(=O)CNC(=O)[C@H]([C@@H](C)O)NC3=O)NC1=O` [Peptide 2, CCpSLCCNPACTGC] (H-CC[pS]LCCNPACTGC-OH; disulfide 1-6, 2-10, 5-13 (inferred); N-terminus and C-terminus assumed): in series [1], the “metabolism in the control reaction” value is listed as “not metabolized”. Further, in series [1] (mouse jejunum fluid, increased for the first 20 minutes then slow decrease), the metabolite formed entry is given as “dephospho-peptide 2”. Further, the “Dephospho (%)” value in series [2] turned out to be 4.1%; in series [4], 100%.

Take `CC(C)C[C@@H]1NC(=O)[C@H](CCC(=O)O)NC(=O)[C@@H]2CSSC[C@@H]3NC(=O)[C@H](C)NC(=O)[C@@H]4CCCN4C(=O)[C@H](CC(N)=O)NC(=O)[C@H](CSSC[C@H](N)C(=O)N2)NC(=O)[C@H](CSSC[C@@H](C(=O)N[C@@H](Cc2ccc(O)cc2)C(=O)O)NC(=O)CNC(=O)[C@H]([C@@H](C)O)NC3=O)NC1=O` [Peptide 3, CCELCCNPACTGCY] (H-CCELCCNPACTGCY-OH; disulfide 1-6, 2-10, 5-13 (inferred); N-terminus and C-terminus assumed): in series [1], the “metabolism in the control reaction” value was “not metabolized” and the “degradation in mouse intestinal fluid compared with peptide 2” value is recorded as “degraded faster”. Besides, the “peptide detected after 90 minutes” value in series [1] (mouse jejunum fluid, 100 μg/mL peptide) is recorded as “not detected”. Moreover, in series [4] (with and without calf intestinal alkaline phosphatase, data not shown), the “Effect of CIP treatment on the peptide (LC-MS)” value is “not affected”.

In the case of `C[C@@H]1NC(=O)[C@@H]2CCCN2C(=O)[C@H](CC(N)=O)NC(=O)[C@@H]2CSSC[C@H](N)C(=O)N[C@H]3CSSC[C@H](NC1=O)C(=O)N[C@@H]([C@@H](C)O)C(=O)NCC(=O)N[C@H](C(=O)N[C@@H](Cc1ccc(O)cc1)C(=O)O)CSSC[C@H](NC(=O)[C@H](Cc1ccc(O)cc1)NC(=O)[C@H](CCC(=O)O)NC3=O)C(=O)N2` [linaclotide, Linaclotide] (H-CCEYCCNPACTGCY-OH; disulfide 1-6, 2-10, 5-13), the levels seen systemically in series [5] is reported as “no detectable levels”.

As for `O=[N+]([O-])c1ccc(OP(=O)(O)O)cc1` [p-nitrophenylphosphate], the “Dephospho (%)” value in series [2], in series [3] and in series [4] was 100% throughout. Also, the “Remaining (%)” value in series [2], in series [3] and in series [4] was 0% in each case.
